Target: MAPK14 (human) (UniProt Q16539)
Assay: Assessment of MAPK14 Kinase Activity

Sequence of MAPK14 (human) (Q16539 whole entry, looked up): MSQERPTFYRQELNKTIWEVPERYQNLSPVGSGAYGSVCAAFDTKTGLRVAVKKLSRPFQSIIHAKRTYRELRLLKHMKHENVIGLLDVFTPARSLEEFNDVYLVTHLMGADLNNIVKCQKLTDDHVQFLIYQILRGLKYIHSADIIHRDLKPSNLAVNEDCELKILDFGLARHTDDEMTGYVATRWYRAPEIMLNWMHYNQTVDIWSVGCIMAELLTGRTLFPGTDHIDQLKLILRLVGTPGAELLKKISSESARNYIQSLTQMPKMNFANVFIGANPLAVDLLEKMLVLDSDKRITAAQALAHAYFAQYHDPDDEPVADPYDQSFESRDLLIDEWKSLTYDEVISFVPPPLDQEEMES

SMILES	IC50 [nM]
CCOC(=O)c1c(C)nn(-c2cc(C(=O)NC3CC3)ccc2C)c1N	< 1000
Cc1ccc(C(=O)NC2CC2)cc1-n1cnc(C(=O)C2CCOCC2)c1N	< 1000
Cc1ccc(C(=O)NC2CC2)cc1-n1nc(OCCOCc2ccccc2)c(C(=O)c2ccccc2)c1N	< 1000
Cc1ccc(-c2nnc[nH]2)cc1-n1ncc(C(=O)c2ccccc2)c1N	< 1000
CONC(=O)c1ccc(C)c(-n2ncc(C(=O)c3ccccc3)c2N)c1	< 1000
Cc1ccc(C(=O)NC2CC2)cc1-n1ncc(C(=O)c2cccc(C#N)c2)c1N	< 1000
Cc1ccc(C(=O)NC2CC2)cc1-n1nc(OC2CCN(C(=O)OC(C)(C)C)CC2)c(C(=O)c2ccccc2)c1N	< 1000
COc1nn(-c2cc(C(=O)NC3CC3)ccc2C)c(N)c1C(=O)c1ccccc1	< 1000
Cc1ccc(C(=O)NC2CC2)cc1-n1ncc(C(=O)NC2CCCCC2C)c1N (configuration not stated)	< 1000
Cc1ccc(C(=O)NC2CC2)cc1-n1cnc(C(=O)c2ccc3c(c2)OCO3)c1N	< 1000
Cc1ccc(C(=O)O)cc1-n1ncc(C(=O)c2cccc(I)c2)c1N	1000 to 10000
Cc1ccc(C(=O)NC2CC2)cc1-n1ncc(C(=O)c2cccc(C=O)c2)c1N	< 1000
Cc1ccc(C(=O)NC2CC2)cc1-n1cnc(C(=O)C2CCCCC2)c1N	< 1000
CONC(=O)c1ccc(C)c(-n2ncc(C(=O)c3cccc(I)c3)c2N)c1	< 1000
Cc1ccc(C(=O)NC2CC2)cc1-n1ncc(C(=O)Nc2ccccc2)c1N	< 1000
Cc1ccc(C(=O)NC2CC2)cc1-n1ncc(C(=O)c2cccc(I)c2)c1N	< 1000
Cc1ccc(C(=O)NC2CC2)cc1-n1cnc(C(=O)c2ccccn2)c1N	< 1000
Cc1ccc(C(=O)O)cc1-n1ncc(C(=O)c2ccccc2)c1N	1000 to 10000

Now from value to compound:

IC50 [nM]	SMILES
< 1000	Cc1ccc(C(=O)NC2CC2)cc1-n1ncc(C(=O)NC2CCc3ccccc32)c1N (configuration not stated)
< 1000	Cc1ccc(C(=O)NC2CC2)cc1-n1ncc(C(=O)c2cccc(CO)c2)c1N
< 1000	Cc1ccc(C(=O)NC2CC2)cc1-n1ncc(C(=O)c2cccc(-c3nnco3)c2)c1N
< 1000	Cc1ccc(C(=O)NC2CC2)cc1-n1ncc(C(=O)c2cccc(OCC(O)CO)c2)c1N (configuration not stated)
< 1000	Cc1ccc(C(=O)NC2CC2)cc1-n1ncc(C(=O)c2ccccc2)c1N
< 1000	CCOC(=O)c1c(OCC(=O)NCc2cccc(Cl)c2)nn(-c2cc(C(=O)NC3CC3)ccc2C)c1N
< 1000	CCOC(=O)c1cnn(-c2cc(C(=O)NC3CC3)ccc2C)c1N
< 1000	Cc1ccc(C(=O)NC2CC2)cc1-n1ncc(C(=O)NCC(C)(C)C)c1N
< 1000	Cc1ccc(C(=O)NC2CC2)cc1-n1ncc(C(=O)c2cccc(C3OCCO3)c2)c1N

Source: the Kinase Knowledgebase extract (Sharma et al. 2016)
